Reference: patent publication US20080194556A1, “Quinazolines and Their Use as Aurora Kinase Inhibitors” (ASTRAZENECA AB, priority 2005, published 2008)

How the values were obtained:
[1] = tested on: SW620 human colon tumour cells; assay: In vitro cell phenotype and substrate phosphorylation assay (phosphohistone H3 levels); format: cell-based; conditions: SW-620, 24 hours of treatment, read-out: IC50 (inhibition of phosphohistone H3 levels)
Method: (c) In Vitro Cell Phenotype and Substrate Phosphorylation Assay
This assay is used to determine the cellular effects of compounds on SW620 human colon tumour cells in vitro. Compounds typically cause inhibition of levels of phosphohistone H3 and an increase in the nuclear area of the cells.
10^4 SW620 cells per well were plated in 100 μl DMEM media (containing 10% FCS and 1% glutamine) (DMEM is Dulbecco's Modified Eagle's Medium (Sigma D6546)) in costar 96 well plates and left overnight at 37° C. and 5% CO2 to adhere. The cells were then dosed with compound diluted in media (50 μl is added to each well to give 0.00015μ-1 μM concentrations of compound) and after 24 hours of treatment with compound, the cells were fixed.
The cells were first examined using a light microscope and any cellular changes in morphology were noted. 100 μl of 3.7% formaldehyde was then added to each well, and the plate was left for at least 30 minutes at room temperature. Decanting and tapping the plate on a paper towel removed the fixative and plates were then washed once in PBS (Dulbecco's Phosphate Buffered Saline (Sigma D8537)) using an automated plate washer. 100 μl PBS and 0.5% triton X-100 was added and the plates were put on a shaker for 5 minutes. The plates were washed in 100 μl PBS and solution tipped off. 50 μl of primary antibody, 1:500 rabbit anti-phosphohistone H3 in PBS 1% BSA (bovine serum albumin) and 0.5% tween, was added. Anti-phosphohistone H3 rabbit polyclonal 06-750 was purchased from Upstate Biotechnology. The plates were left 1 hour at room temperature on a shaker.
The next day, the antibody was tipped off and the plates were washed twice with PBS. In an unlit area, 50 μl of secondary antibody, 1:10,000 Hoechst and 1:200 Alexa Fluor 488 goat anti rabbit IgGA (cat no. 11008 molecular probes) in PBS 1% BSA, 0.5% tween was added. The plates were wrapped in tin foil and shaken for 1 hour at room temperature. The antibody was tipped off and plates were washed twice with PBS. […] 100 μl PBS was added to each well and the plates were sealed ready to analyse. […]

[2] = tested on: drug-resistant MCF7-ADR human breast tumour cells; assay: In vitro drug-resistant cell phenotype and substrate phosphorylation assay (phosphohistone H3 levels); format: cell-based; conditions: NCI/ADR-RES, 24 hours of treatment, read-out: IC50 (inhibition of phosphohistone H3 levels)
Method: (d) In Vitro Drug-Resistant Cell Phenotype and Substrate Phosphorylation Assay.
This assay is used to determine the cellular effects of compounds on drug-resistant MCF7-ADR human breast tumour cells in vitro.
Compounds typically cause inhibition of levels of phosphohistoneH3 and an increase in the nuclear area of treated cells.
0.8×10^4 MCF7-ADR cells per well were plated in 100 μl DMEM media (containing 10% FCS (foetal calf serum) and 1% glutamine) in costar 96 well plates and left overnight at 37° C. and 5% CO2 to adhere.
All other procedures are identical to those for the above assay using SW620 cells.
The compounds of the invention generally have EC50 values for inhibition of phosphohistone H3 levels of 0.5 nM to 0.1 μM.

aurora B-INCENP enzyme = biological target: T1, aurora B-INCENP enzyme (Homo sapiens, UniProt Q96GD4); assay: In vitro aurora B kinase inhibition test; format: biochemical; conditions: 33P incorporation into peptide substrate, 60 minutes at room temperature, read-out: IC50 (50% inhibition of enzyme activity), aurora B kinase
T1 construct: 6-histidine; purchased Upstate
Text: (b) In Vitro Aurora B Kinase Inhibition Test
This assay determines the ability of a test compound to inhibit serine-threonine kinase activity. DNA encoding aurora B may be obtained by total gene synthesis or by cloning. This DNA may then be expressed in a suitable expression system to obtain polypeptide with serine-threonine kinase activity. In the case of aurora B, the coding sequence was isolated from cDNA by polymerase chain reaction (PCR) and cloned into the pFastBac system in a manner similar to that described above for aurora A (i.e. to direct expression of a 6-histidine tagged aurora B protein).
For the large scale expression of aurora B kinase activity, Sf21 insect cells were grown at 28° C. in TC100 medium supplemented with 10% foetal calf serum (Viralex) and 0.2% F68 Pluronic (Sigma) on a Wheaton roller rig at 3 r.p.m. When the cell density reached 1.2×10^6 cells ml^−1 they were infected with plaque-pure aurora B recombinant virus at a multiplicity of infection of 1 and harvested 48 hours later. All subsequent purification steps were performed at 4° C. Frozen insect cell pellets containing a total of 2.0×10^8 cells were thawed and diluted with lysis buffer (50 mM HEPES (N-[2-hydroxyethyl]piperazine-N′-[2-ethanesulphonic acid]) pH7.5 at 4° C., 1 mM Na3VO4, 1 mM PMSF (phenylmethylsulphonyl fluoride), 1 mM dithiothreitol, 1 μg/ml aprotinin, 1 μg/ml pepstatin, 1 μg/ml leupeptin), using 1.0 ml per 2×10^7 cells. Lysis was achieved using a sonication homogeniser, following which the lysate was centrifuged at 41,000 g for 35 minutes. Aspirated supernatant was pumped onto a 5 mm diameter chromatography column containing 1.0 ml CM sepharose Fast Flow (Amersham Pharmacia Biotech) which had been equilibrated in lysis buffer. A baseline level of UV absorbance for the eluent was reached after washing the column with 12 ml of lysis buffer followed by 7 ml of wash buffer (50 mM HEPES pH7.4 at 4° C., 1 mM dithiothreitol). […]

T1 sequence (Q96GD4 whole entry): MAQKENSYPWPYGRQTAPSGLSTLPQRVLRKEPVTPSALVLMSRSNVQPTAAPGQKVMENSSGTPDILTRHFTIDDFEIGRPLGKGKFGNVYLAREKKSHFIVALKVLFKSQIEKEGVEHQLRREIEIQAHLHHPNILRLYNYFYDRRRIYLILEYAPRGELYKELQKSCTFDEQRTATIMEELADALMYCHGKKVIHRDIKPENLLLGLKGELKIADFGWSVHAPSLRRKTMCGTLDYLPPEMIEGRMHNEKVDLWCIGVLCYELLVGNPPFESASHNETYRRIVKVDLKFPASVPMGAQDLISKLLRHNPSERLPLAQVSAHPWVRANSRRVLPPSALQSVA
T1 sequence (Q9NQS7 826-918 partner): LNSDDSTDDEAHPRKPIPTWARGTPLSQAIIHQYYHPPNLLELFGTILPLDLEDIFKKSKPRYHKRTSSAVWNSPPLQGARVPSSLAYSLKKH

SMILES | IC50 [1] [nM] | IC50 [2] [nM] | IC50 (aurora B-INCENP enzyme) [nM]
CCOc1cc(OC[C@H]2CCCN2)c2c(Nc3cnn(CC(=O)Nc4cccc(F)c4F)c3)ncnc2c1 [Compound 2, N-(2,3-difluorophenyl)-2-[4-({7-ethoxy-5-[(2R)-pyrrolidin-2-ylmethoxy]quinazolin-4-yl}amino)-1H-pyrazol-1-yl]acetamide] | 2 | 20 | 0.5
CCOc1cc(OC[C@H]2COCCN2)c2c(Nc3cnn(CC(=O)Nc4cccc(F)c4F)c3)ncnc2c1 [Compound 3, N-(2,3-difluorophenyl)-2-[4-({7-ethoxy-5-[(3R)-morpholin-3-ylmethoxy]quinazolin-4-yl}amino)-1H-pyrazol-1-yl]acetamide] | 2 | 4 | 0.1
CCOc1cc(OC[C@H]2CCCN2C)c2c(Nc3cnn(CC(=O)Nc4cccc(F)c4F)c3)ncnc2c1 [Compound 1, N-(2,3-difluorophenyl)-2-{4-[(7-ethoxy-5-{[(2R)-1-methylpyrrolidin-2-yl]methoxy}quinazolin-4-yl)amino]-1H-pyrazol-1-yl}acetamide] | 5.5 | 17 | 0.5
